{"source": "patent EP0583821A1", "about": "“Atriopeptins, guanylate cyclase activators, and phosphodiesterase inhibitors as treatment for glaucoma, hydrocephalus and cerebral edema (cranial fluid volume dysfunction)” (THE GENERAL HOSPITAL CORPORATION, priority 1987, dated 1988)", "key": {"[1]": {"system": "rabbits", "assay": "Intraocular pressure and ocular observations after topical (eye drop) application", "format": "in vivo, rabbit", "experimental": "The measurement of intraocular pressure (IOP), was performed using procedures similar to those described in Nathanson, Brit. J. Pharmacol., 73:97 (1981) and Nathanson, Current Eye Res., 4:191 (1985). Briefly, male (3-5 kg), New Zealand white rabbits were housed under standard conditions and exposed to a 12 hr light-dark cycle. IOP was measured with a Perkins applanation tonometer after topical anesthesia with 0.4% benoxinate (and 0.25% sodium fluorescein). The tonometer had been calibrated previously by connecting the anterior chamber of enucleated rabbit eyes to a manometer (and reservoir) and taking tonometer readings at different pressures. A number of preliminary IOP readings were made in order to accommodate the animals to the measurement procedure. Readings were then taken just prior to drug or vehicle injection and at 3, 9, 20, 27, 44, 51, 72, and 144 hours post-injection.\nA potent PDE inhibitor of the arylxanthine class, 1,3-dibutylxanthine, was applied unilaterally and topically to rabbit eyes in a 0.5% solution. […] The IOP was decreased 4 mm (Hg) in the ipsilateral eye (Figure 8).\n(§1) Again there was about a 4 mm (Hg) decrease in intraocular pressure. […] This xanthine inhibited the enzyme with an IC₅₀ (concentration necessary for 50% enzyme inhibition) of 25 uM.\nThe effect of nitroglycerine eye drops on rabbit intraocular pressure was also measured. The IOP of 8 conscious, male albino rabbits (3-4 kg) was measured by applanation pnumatonometry after topical anesthesia with 0.4% benoxinate. Nitroglycerine in phosphate buffered saline, pH 7.4, was given unilaterally, in two 25µl drops spaced five minutes apart. Blood pressure and pulse rate were measured by a photoelectric detector using an automated external tail cuff. […] By 24 hours, pressure had returned to normal."}, "[2]": {"target": "cGMP phosphodiesterase", "assay": "Inhibition of cGMP phosphodiesterase in ciliary process", "format": "biochemical", "conditions": "Fig. 9B, read-out: IC₅₀ (concentration necessary for 50% enzyme inhibition)", "description": "The ability of any compound to inhibit cGMP phosphodiesterase (PDE) activity in broken-cell preparations of choroid epithelial cells or ciliary process can be determined either 1) by measuring the decrease in rate of hydrolysis of an added amount of cyclic GMP by PDE (see, Methods Section of Nathanson et al., Mol. Pharmacol. 12:390-398 (1975)), or 2) by measuring the rate of accumulation of one of the breakdown products of cyclic GMP, such as 5'-GMP or guanosine (see method of Filburn et al., Anal. Biochem. 52:505-516 (1973)). Both of these are herein incorporated by reference.\nas §1"}, "[3]": {"system": "adenylate cyclase", "assay": "Adenylate cyclase activity in P1 fractions of whole choroid", "format": "biochemical, rabbit", "conditions": "rANP at high concentrations", "experimental": "The effect of rANP on membrane-bound guanylate cyclase and adenylate cyclase activity in various brain-barrier tissues and tissue fractions from rabbit was compared with its activity in cerebrum and cerebellum. Guanylate cyclase was measured as the rate of cyclic GMP formation by modifications of the technique of Waldman et al., supra, incorporated herein by reference. Briefly, tissues were homogenized (10 mg wet weight per milliliter) in 50 mM tris-HCl, pH 8.0, 1 mM EDTA, 1 mM dithiothreitol, and 250 mM sucrose and centrifuged at 100,000g to obtain a P1 pellet. Reaction tubes contained (in 0.3 ml), 50 mM tris, pH 7.6, 6 mM MnCl₂, 0.5 mM 3-isobutyl, 1-methylxanthine (IBMX), 10 mM theophylline, 3 mM GTP, hormone (in 0.03 ml containing 2.5 mM ascorbic acid and 0.1% bovine serum albumin), and 0.06 ml of P1 fraction (40 to 60 ug of protein). The reaction (4 minutes at 30°C) was started by addition of GTP and terminated by addition of 0.3 ml of 150 mM sodium acetate (pH 4.0) and boiling for 3 minutes. Cyclic GMP formed was subsequently measured by radioimmunoassay as described in example 6, infra. Under these conditions, guanylate cyclase activity was linear with time and tissue concentration. Adenylate cyclase activity in P1 fractions was measured according to the method described by Nathanson, et al., Science; 204:843 (1979); Mol. Pharmacol. 18:199 (1980), see Figure 1C . […] Neurosci. […]"}, "[4]": {"target": "T1, guanylate cyclase (Oryctolagus cuniculus, UniProt G1TXB5)", "T1 sequence (G1TXB5 28-1056)": "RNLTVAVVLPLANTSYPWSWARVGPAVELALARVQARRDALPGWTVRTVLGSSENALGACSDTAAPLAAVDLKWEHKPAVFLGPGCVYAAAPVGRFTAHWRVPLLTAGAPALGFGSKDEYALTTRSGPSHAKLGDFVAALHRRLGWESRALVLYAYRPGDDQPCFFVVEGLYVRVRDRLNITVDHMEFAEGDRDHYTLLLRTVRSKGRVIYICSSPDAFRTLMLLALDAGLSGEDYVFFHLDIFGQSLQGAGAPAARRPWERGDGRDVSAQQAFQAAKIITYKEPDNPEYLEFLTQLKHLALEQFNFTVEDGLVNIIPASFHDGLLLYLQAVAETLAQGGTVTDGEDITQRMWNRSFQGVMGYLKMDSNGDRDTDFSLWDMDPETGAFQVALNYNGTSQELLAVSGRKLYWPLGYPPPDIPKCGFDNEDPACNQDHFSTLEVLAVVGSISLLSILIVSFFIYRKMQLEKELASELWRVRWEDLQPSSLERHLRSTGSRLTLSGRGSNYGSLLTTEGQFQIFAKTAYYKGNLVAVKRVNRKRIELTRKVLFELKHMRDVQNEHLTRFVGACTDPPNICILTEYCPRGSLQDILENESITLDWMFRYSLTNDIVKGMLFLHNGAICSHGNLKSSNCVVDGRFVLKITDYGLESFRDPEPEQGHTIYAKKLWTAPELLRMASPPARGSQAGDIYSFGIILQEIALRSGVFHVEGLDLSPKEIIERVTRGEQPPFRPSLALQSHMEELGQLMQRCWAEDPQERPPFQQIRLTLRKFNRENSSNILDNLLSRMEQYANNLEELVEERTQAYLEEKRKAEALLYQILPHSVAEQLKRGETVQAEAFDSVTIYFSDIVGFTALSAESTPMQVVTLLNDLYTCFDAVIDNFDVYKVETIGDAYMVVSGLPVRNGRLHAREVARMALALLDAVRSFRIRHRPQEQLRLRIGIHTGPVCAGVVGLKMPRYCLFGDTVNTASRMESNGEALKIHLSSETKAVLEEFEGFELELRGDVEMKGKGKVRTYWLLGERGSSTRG", "assay": "Atriopeptin-activated guanylate cyclase in ciliary process membrane (P1) fractions", "format": "biochemical, rabbit", "parameters": "tissues were homogenized (10 mg wet weight per milliliter); from tissue; host or cells: rabbit cerebral microvessels, choroid plexus, kidney, ciliary process, pia-arachnoid, cerebellum; 100,000 g P1 pellet", "conditions": "mean ± range of duplicate determinations", "experimental": "Ciliary process tips were obtained from male, 3-4 kg, New Zealand white rabbits, immediately following sacrifice with an overdose of ether, as described in Nathanson, Invest. Ophthal. Vis. Sci., 21:7981 (1982). The tissue was minced and homogenized (10 mg/ml) by hand in a glass-glass homogenizer in a buffer consisting of 50 mM Tris HCl, pH 8.0; 1mM EDTA, and 250mM sucrose. The homogenate was diluted 30-fold with buffer and centrifuged at 100,000 x g, to obtain a P1 fraction. The pellet was rehomogenized in the original volume and left on ice until use. P1 fractions were also prepared from wedges of rabbit kidney taken from the same animals. In some experiments, P1 fractions were prepared from iris and from ciliary body, as described in Nathanson, Proc. Natl. Acad. Sci. USA, 77:7420 (1980). Briefly, iris was removed from its attachment to the ciliary body, cleaned of adhering ciliary process tissue, washed, and homogenized as above. The ciliary muscle was cleaned of most remaining ciliary process tissue, freed from the underlying sclera by blunt and sharp dissection, and then washed and homogenized.\n(§2) Atriopeptin-activated guanylate cyclase activity was measured as the rate of conversion of GTP to cyclic GMP. […]\nFor RIA, each tube contained (in 0.5ml), 50mM sodium acetate buffer (pH 6.2), 2mM EDTA, 1mg/ml bovine serum albumin, 0.1 ml of sample (or diluted sample), 8,000-15,000 cpm (about 5 fmole) of ¹²⁵I succinyl cyclic GMP tyrosine methyl ester, and antibody to bind 25-35% of the label. […] Activation constants (Ka) were determined from dose-response curves utilizing 12-14 data points (6-7 concentrations of hormone, in duplicate), each point representing the mean of triplicate RIA determinations.\nAtriopeptin-activated guanylate cyclase activity was measured, as described in Example 5, in membranes from rabbit kidney and ciliary process prepared as in Example 4. […]"}, "[5]": {"target": "T1, guanylate cyclase", "assay": "Atriopeptin-activated guanylate cyclase in kidney membrane (P1) fractions", "format": "biochemical, rabbit", "parameters": "tissues were homogenized (10 mg wet weight per milliliter); from tissue; host or cells: rabbit cerebral microvessels, choroid plexus, kidney, ciliary process, pia-arachnoid, cerebellum; 100,000 g P1 pellet", "conditions": "mean ± range of duplicate determinations", "experimental": "The effect of rANP on membrane-bound guanylate cyclase and adenylate cyclase activity in various brain-barrier tissues and tissue fractions from rabbit was compared with its activity in cerebrum and cerebellum. Guanylate cyclase was measured as the rate of cyclic GMP formation by modifications of the technique of Waldman et al., supra, incorporated herein by reference. Briefly, tissues were homogenized (10 mg wet weight per milliliter) in 50 mM tris-HCl, pH 8.0, 1 mM EDTA, 1 mM dithiothreitol, and 250 mM sucrose and centrifuged at 100,000g to obtain a P1 pellet. Reaction tubes contained (in 0.3 ml), 50 mM tris, pH 7.6, 6 mM MnCl₂, 0.5 mM 3-isobutyl, 1-methylxanthine (IBMX), 10 mM theophylline, 3 mM GTP, hormone (in 0.03 ml containing 2.5 mM ascorbic acid and 0.1% bovine serum albumin), and 0.06 ml of P1 fraction (40 to 60 ug of protein). The reaction (4 minutes at 30°C) was started by addition of GTP and terminated by addition of 0.3 ml of 150 mM sodium acetate (pH 4.0) and boiling for 3 minutes. Cyclic GMP formed was subsequently measured by radioimmunoassay as described in example 6, infra. Under these conditions, guanylate cyclase activity was linear with time and tissue concentration. Adenylate cyclase activity in P1 fractions was measured according to the method described by Nathanson, et al., Science; 204:843 (1979); Mol. Pharmacol. 18:199 (1980), see Figure 1C . […] Neurosci. Abstr., 10, 899 (1984); Nathanson, et al., Soc. Neurosci. Abstr., 12, 1257 (1986), incorporated herein by reference, but with a lower concentration (0.025%) of trypsin and a rotating tissue tumbler which allowed cleaner fractionation of epithelial cells from erythrocytes and vascular components.\nCiliary process tips were obtained from male, 3-4 kg, New Zealand white rabbits, immediately following sacrifice with an overdose of ether, as described in Nathanson, Invest. Ophthal. Vis. Sci., 21:7981 (1982). […]\nas §2"}, "[6]": {"system": "guanylate cyclase", "assay": "Ciliary process guanylate cyclase activity (Tables 2 and 3)", "format": "biochemical", "conditions": "Table 3; concentration not given"}}, "data": [{"compound": "CCCCn1c(=O)c2[nH]cnc2n(CCCC)c1=O", "note": "[1,3-dibutylxanthine]", "values": [{"measurement": "IOP in the contralateral eye", "setting": "[1]; 0.5% solution, unilateral topical", "result": "small decrease"}, {"measurement": "decrease of IOP in the ipsilateral eye", "setting": "[1]; 0.5% solution, unilateral topical, rabbit eyes", "result": "4 mm (Hg)"}]}, {"compound": "CC(C)Cn1c(=O)n(C)c(=O)c2[nH]cnc21", "note": "[1-methyl-3-isobutyl-xanthine]", "values": [{"measurement": "decrease in intraocular pressure", "setting": "[1]; topical administration, Fig. 9A", "result": "~4 mm (Hg)"}, {"measurement": "IC50", "setting": "[2]", "result": 25, "unit": "µM"}]}, {"compound": "CC(C)NCC(O)c1ccc(O)c(O)c1", "note": "(stereo not drawn) [isoproterenol]", "values": [{"measurement": "effect on adenylate cyclase activity", "setting": "[3]", "result": "stimulated"}]}, {"compound": "rANP 1-11 (SLRRSSCFGGR; Atrial natriuretic peptide; UniProt P01161 123-133, looked up, fragment)", "values": [{"measurement": "Vmax Stimulation (%) of Guanylate Cyclase Ciliary Process", "setting": "[4]", "result": "4 ± 6", "unit": "%"}, {"measurement": "Vmax Stimulation (%) of Guanylate Cyclase Kidney", "setting": "[5]", "result": "25 ± 6", "unit": "%"}]}, {"compound": "sodium nitrate [COMPOUND \"N\"]", "values": [{"measurement": "effect on IOP", "setting": "[1]; 0.1% eye drop preparation, rabbits", "result": "lowers IOP"}, {"measurement": "CILIARY PROCESS GUANYLATE CYCLASE ACTIVITY (Percent Increase)", "setting": "[6]", "result": 46, "unit": "Percent Increase"}]}]}
